{"source": "patent EP3623369A1", "about": "“NOVEL MORPHOLINYL AMINE COMPOUNDS FOR THE TREATMENT OF AUTOIMMUNE DISEASE” (F. Hoffmann-La Roche AG, priority 2018, dated 2020)", "key": {"hTLR7": {"molecular_target": "T1, hTLR7 (Homo sapiens, UniProt Q9NYK1)", "T1 sequence (Q9NYK1 27-1049)": "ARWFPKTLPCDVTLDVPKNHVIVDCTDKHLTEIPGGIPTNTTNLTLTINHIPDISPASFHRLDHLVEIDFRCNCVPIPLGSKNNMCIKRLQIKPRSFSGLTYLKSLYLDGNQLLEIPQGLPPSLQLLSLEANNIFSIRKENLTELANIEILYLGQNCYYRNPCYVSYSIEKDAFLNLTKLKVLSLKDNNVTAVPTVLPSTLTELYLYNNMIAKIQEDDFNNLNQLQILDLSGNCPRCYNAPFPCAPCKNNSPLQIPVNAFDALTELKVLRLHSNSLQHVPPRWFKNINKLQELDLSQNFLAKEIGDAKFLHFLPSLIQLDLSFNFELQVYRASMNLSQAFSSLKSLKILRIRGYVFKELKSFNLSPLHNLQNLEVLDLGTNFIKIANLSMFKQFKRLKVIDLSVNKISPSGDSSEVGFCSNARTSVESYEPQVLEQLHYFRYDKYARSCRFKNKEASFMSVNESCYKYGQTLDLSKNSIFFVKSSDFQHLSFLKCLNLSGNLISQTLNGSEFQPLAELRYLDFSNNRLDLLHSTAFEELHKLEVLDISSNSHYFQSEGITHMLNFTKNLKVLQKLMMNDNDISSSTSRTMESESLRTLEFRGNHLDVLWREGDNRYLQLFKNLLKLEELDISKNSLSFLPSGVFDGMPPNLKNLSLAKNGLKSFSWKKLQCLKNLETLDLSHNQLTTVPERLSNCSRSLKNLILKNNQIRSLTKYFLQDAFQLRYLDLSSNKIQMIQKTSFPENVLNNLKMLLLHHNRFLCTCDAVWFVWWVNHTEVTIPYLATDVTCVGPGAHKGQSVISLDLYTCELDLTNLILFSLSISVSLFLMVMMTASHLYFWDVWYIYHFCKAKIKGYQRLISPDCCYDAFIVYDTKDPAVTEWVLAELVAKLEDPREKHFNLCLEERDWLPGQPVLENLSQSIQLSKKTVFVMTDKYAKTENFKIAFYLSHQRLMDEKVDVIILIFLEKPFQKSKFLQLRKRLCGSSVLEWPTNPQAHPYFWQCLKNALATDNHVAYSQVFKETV", "set-up": "host or cells: HEK", "conditions": "data disclosed in US20150105370; read-out: HEK/hTLR7 IC50; cited from earlier work"}, "hTLR9": {"molecular_target": "T2, hTLR9 (Homo sapiens, UniProt Q9NR96)", "T2 sequence (Q9NR96 26-1032)": "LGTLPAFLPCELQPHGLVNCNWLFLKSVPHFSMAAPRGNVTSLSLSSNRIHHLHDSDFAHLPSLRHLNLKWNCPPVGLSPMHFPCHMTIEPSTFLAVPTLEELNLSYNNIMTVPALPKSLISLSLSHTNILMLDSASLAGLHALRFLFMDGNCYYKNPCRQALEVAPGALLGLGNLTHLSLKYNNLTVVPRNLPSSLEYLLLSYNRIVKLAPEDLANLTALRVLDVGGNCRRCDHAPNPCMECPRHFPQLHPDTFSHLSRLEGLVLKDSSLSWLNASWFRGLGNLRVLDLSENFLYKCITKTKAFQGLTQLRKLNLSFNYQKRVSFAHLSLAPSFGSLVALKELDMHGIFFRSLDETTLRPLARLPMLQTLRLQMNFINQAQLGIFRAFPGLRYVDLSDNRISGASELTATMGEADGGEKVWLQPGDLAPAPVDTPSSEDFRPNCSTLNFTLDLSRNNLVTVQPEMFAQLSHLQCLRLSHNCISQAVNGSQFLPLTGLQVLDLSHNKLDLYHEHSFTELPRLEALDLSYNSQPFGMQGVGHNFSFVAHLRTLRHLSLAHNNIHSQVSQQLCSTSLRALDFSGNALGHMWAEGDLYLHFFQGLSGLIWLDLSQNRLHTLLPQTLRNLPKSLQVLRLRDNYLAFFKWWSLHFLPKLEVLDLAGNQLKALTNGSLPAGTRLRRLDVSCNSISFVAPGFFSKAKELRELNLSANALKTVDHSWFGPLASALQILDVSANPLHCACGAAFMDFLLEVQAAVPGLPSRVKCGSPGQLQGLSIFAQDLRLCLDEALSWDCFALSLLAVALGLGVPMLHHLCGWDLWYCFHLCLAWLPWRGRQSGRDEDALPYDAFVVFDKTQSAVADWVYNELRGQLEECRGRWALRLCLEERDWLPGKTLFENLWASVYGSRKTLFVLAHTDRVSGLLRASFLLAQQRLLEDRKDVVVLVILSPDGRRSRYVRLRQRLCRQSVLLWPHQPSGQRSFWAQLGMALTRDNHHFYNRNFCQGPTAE", "set-up": "host or cells: HEK", "conditions": "data disclosed in US20150105370; read-out: HEK/hTLR9 IC50; cited from earlier work"}, "[1]": {"assay": "Human microsome stability assay", "type": "in vitro ADME", "conditions": "human liver microsomes, 1 µM test compound, 0.5 mg/mL protein, 37°C, up to 30 minutes", "experimental": "Human microsome stability assay\nThe human microsomal stability assay is used for early assessment of metabolic stability of a test compound in human liver microsomes.\nHuman liver microsomes (Cat.NO.: 452117, Corning, USA;Cat.NO.:H2610, Xenotech, USA) were preincubated with test compound for 10 minutes at 37°C in 100 mM potassium phosphate buffer, pH 7.4. The reactions were initiated by adding NADPH regenerating system. The final incubation mixtures contained 1 µM test compound, 0.5 mg/mL liver microsomal protein, 1 mM MgCl2, 1 mM NADP, 1 unit/mL isocitric dehydrogenase and 6 mM isocitric acid in 100 mM potassium phosphate buffer, pH 7.4. After incubation times of 0, 3, 6, 9, 15 and 30 minutes at 37°C, 300 µL of cold acetonitrile (including internal standard) was added to 100 µL incubation mixture to terminate the reaction. Following precipitation and centrifugation, the amount of compound remaining in the samples were determined by LC-MS/MS. Controls of no NADPH regenerating system at zero and 30 minutes were also prepared and analyzed. […] Table 3. Human liver microsome stability of the compounds of present invention"}}, "data": [{"smiles": "C[C@@H]1CN(c2ccc(C#N)c3ncccc23)C[C@H](CNc2ccccc2)O1", "note": "[ER-886601]", "values": [{"measurement": "IC50", "setting": "hTLR7", "value": 15, "unit": "nM"}, {"measurement": "IC50", "setting": "hTLR9", "value": "> 2000", "unit": "nM"}]}, {"smiles": "Cc1cccc(NC[C@H]2CN(c3ccc(C#N)c4ncccc34)C[C@@H](C)O2)c1", "note": "[ER-886602]", "values": [{"measurement": "IC50", "setting": "hTLR7", "value": 185, "unit": "nM"}, {"measurement": "IC50", "setting": "hTLR9", "value": "> 20000", "unit": "nM"}]}, {"smiles": "Cc1nc2cc(NC[C@H]3CN(c4ccc(C#N)c5ncccc45)C[C@@H](C)O3)ccc2n1C", "note": "[ER-886608]", "values": [{"measurement": "IC50", "setting": "hTLR7", "value": 13, "unit": "nM"}, {"measurement": "IC50", "setting": "hTLR9", "value": 3370, "unit": "nM"}]}, {"smiles": "Cc1cccc(NC[C@H]2CN(c3ccc(C#N)c4ncccc34)C[C@@H](C)O2)n1", "note": "[ER-886799]", "values": [{"measurement": "IC50", "setting": "hTLR7", "value": 7, "unit": "nM"}, {"measurement": "IC50", "setting": "hTLR9", "value": "> 2000", "unit": "nM"}]}, {"smiles": "C[C@@H]1CN(c2ccc(C#N)c3nccnc23)C[C@H](CN2Cc3ccc(N4CC5CCC(C4)N5)cc3C2)O1", "note": "[Example 44, 8-[(2S,6R)-2-[[5-(3,8-diazabicyclo[3.2.1]octan-3-yl)isoindolin-2-yl]methyl]-6-methyl-morpholin-4-yl]quinoxaline-5-carbonitrile]", "values": [{"measurement": "Clearance of Human microsome", "setting": "[1]", "value": 6.94, "unit": "mL/min/kg"}]}, {"smiles": "C[C@@H]1CN(c2ccc(C#N)c3ncccc23)C[C@H](CN2Cc3ccc(N4CCNCC4C(=O)O)cc3C2)O1", "note": "(stereo partly drawn) [Example 56, 1-[2-[[(2S,6R)-4-(8-cyano-5-quinolyl)-6-methyl-morpholin-2-yl]methyl]isoindolin-5-yl]piperazine-2-carboxylic acid]", "values": [{"measurement": "Clearance of Human microsome", "setting": "[1]", "value": 6.51, "unit": "mL/min/kg"}]}]}
